Laboratory results as given in article PMC3793267 (Biomarkers, 2008).

How the values were obtained:
rat plasma albumin [1] = molecular target: T1, rat plasma albumin (Rattus norvegicus, UniProt P02770); test: biochemical; format: binding
erythrocyte AChE [2] = molecular target: erythrocyte AChE (Rattus norvegicus, UniProt P37136); test: Erythrocyte AChE inhibition after oral dosing of rats; format: in vivo, F344 rats
rats = test: Clinical signs in rats after oral dosing
rat plasma albumin [3] = molecular target: T1, rat plasma albumin; test: Plasma albumin binding by pesticide in vivo after oral dosing of rats; design: species or system F344 rats; conditions: for inhibition of binding of the ^3H-DFP-radiolabelled albumin molecules in vivo: 25% of LD50, plasma 1 day after dosing
Erythrocyte AChE [4] = conditions: steady (linear) recovery; ref Mason [2000]; cited from earlier work

T1 sequence (P02770 25-608): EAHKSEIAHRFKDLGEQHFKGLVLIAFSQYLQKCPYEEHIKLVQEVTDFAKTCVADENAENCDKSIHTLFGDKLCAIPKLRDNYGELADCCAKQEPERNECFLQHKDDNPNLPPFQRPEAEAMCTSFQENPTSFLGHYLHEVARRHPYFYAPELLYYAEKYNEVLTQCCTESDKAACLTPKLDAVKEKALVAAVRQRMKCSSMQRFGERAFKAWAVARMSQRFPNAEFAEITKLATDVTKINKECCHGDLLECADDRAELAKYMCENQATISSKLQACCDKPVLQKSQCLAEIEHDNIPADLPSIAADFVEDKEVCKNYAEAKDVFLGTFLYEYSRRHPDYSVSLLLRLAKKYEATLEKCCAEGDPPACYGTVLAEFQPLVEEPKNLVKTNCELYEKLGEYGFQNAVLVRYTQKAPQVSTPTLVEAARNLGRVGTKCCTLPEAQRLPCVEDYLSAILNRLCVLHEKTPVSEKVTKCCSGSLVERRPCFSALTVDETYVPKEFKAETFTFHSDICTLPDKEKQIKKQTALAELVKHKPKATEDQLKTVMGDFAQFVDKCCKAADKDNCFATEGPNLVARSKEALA

COP(=O)(OC)SCn1c(=O)oc2cc(Cl)cnc21 [Azamethiphos (oxon), S-6-chloro-2,3-dihydro-2-oxo-1,3-oxazolo[4,5-b]pyridin-3-ylmethyl O,O-dimethyl phosphorothioate]
rat plasma albumin binding (^3H-DFP radiolabelling) reduced from controls (rat plasma albumin [1]): 9±1%

CCOP(=O)(OCC)OC(=CCl)c1ccc(Cl)cc1Cl [Chlorfenvinphos (oxon), 2-chloro-1-(2,4-dichlorophenyl)vinyl diethyl phosphate]
inhibition at 1.25 mg/kg (erythrocyte AChE [2]; rat, po, read-out: erythrocyte AChE inhibition): 22%
clinical signs (rats; 12.5% of LD50 (1.25 mg kg^−1)): not the lower dose
clinical signs (rats; 80% of LD50 (8.0 mg kg^−1)): salivation and muscle fasciculation in all rats
IC50 (rat plasma albumin [1]): ~400 nM
^3H-DFP incorporation into rat plasma albumin versus controls (significance) (rat plasma albumin [1]): significantly different from controls
rat plasma albumin binding (^3H-DFP radiolabelling) reduced from controls (rat plasma albumin [1]): 67±2%
inhibition of binding of the ^3H-DFP-radiolabelled albumin molecules in vivo (rat plasma albumin [3]): approximately 50%
^3H-DFP radiolabelled albumin molecules bound in vivo (rat plasma albumin [3]; each of the doses 12.5%, 25% and 80% of LD50, 24 h after dosing): approximately 50%

CCOC(=O)CC(SP(=O)(OC)OC)C(=O)OCC (stereo not shown) [Malaoxon]
rat plasma albumin binding (^3H-DFP radiolabelling) reduced from controls (rat plasma albumin [1]): 8±1%

CCOC(=O)CC(SP(=S)(OC)OC)C(=O)OCC (stereo not shown) [Malathion, diethyl (dimethoxyphosphinothioylthio)succinate]
erythrocyte AChE inhibition (erythrocyte AChE [2]; rats, oral, (approximately) 25% of LD50, Day 1 (24 h) after dosing): 57%

CCN(CC)c1nc(C)cc(OP(=S)(OC)OC)n1 [Pirimiphos-methyl, O-2-diethylamino-6-methylpyrimidin-4-yl O,O-dimethyl phosphorothioate]
inhibition of binding of the ^3H-DFP-radiolabelled albumin molecules in vivo (rat plasma albumin [3]): approximately 50%

COP(=O)(OC)OC=C(Cl)Cl [dichlorvos]
time for erythrocyte AChE to return to control levels (Erythrocyte AChE [4]): approximately 82 days
